{"source": "patent US20090042993A1", "about": "“IDENTIFICATION OF NOVEL POST-TRANSLATIONAL PROTEIN MODIFICATIONS” (priority 2007, published 2009)", "key": {"[1]": {"test_system": "lysine deacetylase activity in Golgi vesicles", "assay": "Membrane deacetylase activity, in vitro deacetylation of acetylated BACE1-myc by Golgi vesicles", "type": "biochemical, Chinese Hamster", "settings": "vesicles from ceramide-treated cells, 0.2% Triton X-100, 30° C.", "from_the_text": "Intact vesicles from the endoplasmic reticulum (ER) and the Golgi apparatus were purified on a 10-34% Iodixanol (OptiPrep; Axis-Shield, Norway) continuous gradient as described (Puglielli et al., 2001, Nat. Cell Biol. 3: 905-912). The complete migration of subcellular markers in a typical gradient is shown in Costantini et al., 2006, EMBO J. 25: 1997-2006; Puglielli et al., 2001, Nat. Cell Biol. 3: 905-912. Fractions enriched in ER and Golgi markers (also called ER or Golgi vesicles herein) were separated, pooled together, and resuspended in isotonic/cryogenic buffer (0.25 M sucrose and 10 mM Tris-HCl, pH 7.4) in the presence of protease inhibitors (Roche). Latency of ER and Golgi vesicles was determined with the glucose-6-phosphatase (Clairmont et al., 1992, J. Biol. Chem. 267: 3983-3900) and the sialyl-transferase (Puglielli and Hirschberg, 1999, J. Biol. Chem. 274: 35596-35600) methods, respectively. […]\nBACE1 was eluted by lowering the pH to 2.0 and recovered by centrifuging at 3000 rpm for 2 min. […] BACE1 was then immunoprecipitated and counted on a liquid scintillation counter. […]\nFIG. 6 illustrates how acetyltransferase and deacetylase activities exist in the lumen of ER and Golgi apparatus, respectively. […] The reaction was stopped by lowering the temperature; BACE1 was then purified again and analyzed on a scintillation liquid counter. […]"}, "BACE1": {"test_system": "BACE1", "assay": "Pulse-chase and cell-surface biotinylation of newly-synthesized BACE1", "type": "cell-based, human", "settings": "BACE1WT expressing cells, 1.5 hours after the pulse", "description": "Confluent cells were starved for 1 hr in Met/Cys free medium, labeled with 100 μCi [^35S]-Met/Cys (Trans35S-Label, >1000 Ci/mmol; Pierce) in starvation medium/dish and chased for 8, 16, and 24 hours with DMEM supplemented with 5 mM cold Met/Cys. Cell extracts were pre-cleared with BioMag Protein A (Polysciences, Inc.). Beads were used at the concentration of 15 μl of the slurry per sample and separated with a magnetic holder. BACE1 was then immunoprecipitated with anti-BACE1 antibodies and recovered with BioMag Protein A as above. The immunoprecipitate-bead complexes were washed 3 times and boiled in sample buffer. Beads were then separated and the samples were analyzed by reducing SDS-PAGE (on a 4-12% Bis-Tris NuPAGE system) and autoradiography.\nFor cell-surface biotinylation, cells were labeled as above and chased for 1.5 hours. […] Proteins were eluted and recovered as above; BACE1 was then immunopurified and analyzed by reducing SDS-PAGE and autoradiography.\nFIG. 3 illustrates how transient lysine acetylation controls both translocation along the secretory pathway and molecular stability of the nascent BACE1 protein. […] Immunoprecipitates were analyzed by SDS-PAGE and autoradiography. […] BACE1 was then immunoprecipitated as above and analyzed by reducing SDS-PAGE and autoradiography. Results are expressed as percentage of total newly-synthesized BACE1. […]"}}, "data": [{"smiles": "CCCCCCCCCCCCC/C=C/[C@@H](O)[C@H](CO)NC(=O)CCCCC", "note": "[ceramide, C6-ceramide]", "values": [{"measurement": "in vitro deacetylation of BACE1 by Golgi vesicles", "setting": "[1]", "value": "increased deacetylation"}, {"measurement": "translocation of newly-synthesized BACE1 to the cell surface", "setting": "BACE1", "value": "increasing the translocation of newly-synthesized BACE1 to the cell surface to levels almost similar to BACE1Gln"}]}]}
